Measurements taken from patent publication US6919360B2, “Benzisothiazolyl-substituted aminomethyl chromanes for treating diseases of the central nervous system” (Bayer HealthCare AG, priority 2001, dated 2005).
Structures can show the parent of a compound that is named as a salt.

Legend:
5-HT1A receptors = target: T1, 5-HT1A receptors (Rattus norvegicus, UniProt P19327); experiment: Affinity to the 5-HT1A receptor: [3H]-8-OH-DPAT binding in hippocampus membranes; conditions: displacement of [3H]-8-OH-DPAT, hippocampus membranes of rats; Ki calculated from IC50
T1 construct: 5-HT1A receptors in hippocampus membranes of rats; from tissue; host or cells: rat hippocampus membranes
T1 sequence (P19327 1-422): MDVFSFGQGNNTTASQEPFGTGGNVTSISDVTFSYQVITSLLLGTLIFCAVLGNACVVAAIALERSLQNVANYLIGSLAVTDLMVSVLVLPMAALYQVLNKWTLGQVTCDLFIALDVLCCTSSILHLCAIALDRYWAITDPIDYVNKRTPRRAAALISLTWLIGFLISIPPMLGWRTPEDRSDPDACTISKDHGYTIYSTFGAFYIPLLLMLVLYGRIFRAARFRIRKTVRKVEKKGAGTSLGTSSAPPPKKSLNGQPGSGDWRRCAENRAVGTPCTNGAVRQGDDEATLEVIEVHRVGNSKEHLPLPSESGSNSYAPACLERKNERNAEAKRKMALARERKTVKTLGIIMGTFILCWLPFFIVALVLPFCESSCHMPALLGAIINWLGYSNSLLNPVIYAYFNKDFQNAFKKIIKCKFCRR
Method: 1. Affinity to the 5-HT1A Receptor
(Dompert et al., Naunyn-Schmiedeberg's Arch. Pharmacol. 1985, 328, 467-470).
In this test, binding of [^3H]-8-OH-DPAT to 5-HT1A receptors in hippocampus membranes of rats is measured.
In the binding test, IC50 values are determined which state at which concentration of test substance 50% of bound radio ligand is displaced. Taking into account the dissociation constants and the concentration of radio ligand, this is used to calculate the inhibition constant Ki.

SMILES | Ki (5-HT1A receptors) [nM] | melting point [°C]
O=C1c2ccccc2S(=O)(=O)N1CCCCNC[C@H]1CCc2cc(O)ccc2O1 [Example 2, 2-[4-({[(2R)-6-Hydroxy-3,4-dihydro-2H-chromen-2-yl]methyl}amino)butyl]-1,2-benzisothiazol-3(2H)-one 1,1-dioxide hydrochloride] | 1.93 | –
O=C1c2ccccc2S(=O)(=O)N1CCCCNC[C@H]1CCc2cc(O)ccc2O1 (as salt: hydrochloride) [Example 2, 2-[4-({[(2R)-6-Hydroxy-3,4-dihydro-2H-chromen-2-yl]methyl}amino)butyl]-1,2-benzisothiazol-3(2H)-one 1,1-dioxide hydrochloride] | – | 220 to 222
COc1cc2c(cc1O)O[C@@H](CNCCCCN1C(=O)c3ccccc3S1(=O)=O)CC2 [Example 1, (R)-(−)-2-(4-{[(7-Hydroxy-6-methoxy-3,4-dihydro-2H-chromen-2-yl)methyl]-amino}butyl)-1,2-benzisothiazol-3(2H)-one 1,1-dioxide hydrochloride] | 3.15 | –
